This is an account of results in US12404239B2, “Modulators of BCL6 as ligand directed degraders” (Celgene Corporation, priority 2022, dated 2025).

Molecules are shown by their SMILES. Some results are limits rather than exact numbers.

The first assay deals with T1, BCL6 (Homo sapiens, UniProt P41182).
T1 construct: HiBiT-tag knocked into endogenous BCL6 locus using CRISPR; endogenous in cells; host or cells: DHL-4_BCL6_HiBiT cells (CRISPR knock-in)
The assay is described as follows: BCL6_HiBiT degradation assay (2 h). The format is cell-based. As to conditions: DHL-4_BCL6_HiBiT cells. How it is done: A DHL-4 cell line with HiBiT-tag knocked into endogenous BCL6 locus using CRISPR was generated. The DHL-4_BCL6_HiBiT cells were dispensed into 384-well plates (Corning no. 3570) that were pre-spotted with compounds. Compounds were dispensed by an acoustic dispenser (ATS acoustic transfer system from EDC Biosystems) into a 384-well plate in a 10-point dose response curve using 3-fold dilutions starting at 1-10 μM and going down to […]. 25 μL of media (RPMI-1640+10% heat inactivated FBS+1×Pen/Strep) containing 2500 of DHL-4 was dispensed per well. Assay plates were incubated at 37° C. with 5% CO2 for 2 hours. After incubation, 25 μL of the Nano-Glo HiBiT lytic detection working solution (Promega, catalogue no. N3040, Madison, WI) was added to each well and incubated at room temperature for 15-30 min, protected from light. After 30 min, luminescence was read on an Envision or PHERAstar luminescence reader. To determine the EC50 value (the half-maximum effective concentration) and the level of the gradation (Yconstant) of a BCL6 degrader, luminescent signal normalized by DMSO control (Y) and compound concentration (x) was fitted using a four-parameter dose-response model (Y=(A+((B−A)/1+((C/x)^D) in Dotmatics. Fitted value C is the degradation EC50 and the minimum value A is the Y constant.
The degradation of BCL6 at 2 h in DHL-4 results are shown in Table 5, where EC50 is the half maximal effect and Ycon is the % remaining maximal effect.
(In general: With HiBiT, luminescence reflects the tagged protein that the partner subunit can reach.)
Turning to `CC1CN(c2ncc(Cl)c(Nc3ccc4c(c3)CC(=O)N4C)n2)CCCC1Nc1ccc2c(C3CCC(=O)NC3=O)nn(C)c2c1` (single isomer, unassigned) [Example 51, 3-(6-((1-(5-chloro-4-((1-methyl-2-oxoindolin-5-yl)amino)pyrimidin-2-yl)-3-methylazepan-4-yl)amino)-1-methyl-1H-indazol-3-yl)piperidine-2,6-dione], the “YCon (% remaining maximal effect)” value is recorded as “^^ (20-60%)”.

Still in this assay, the particulars now being: DHL-4_BCL6_HiBiT cells, read-out: YCon (% remaining maximal effect).
Regarding `CN1C(=O)Cc2cc(Nc3nc(N(C)C4CCN(c5ccc6c(C7CCC(=O)NC7=O)nn(C)c6c5)C(=O)C4)ncc3Cl)ccc21` (stereo not shown) [Example 127, 3-(6-(4-((5-chloro-4-((1-methyl-2-oxoindolin-5-yl)amino)pyrimidin-2-yl)(methyl)amino)-2-oxopiperidin-1-yl)-1-methyl-1H-indazol-3-yl)piperidine-2,6-dione], the Percent BCL6 remaining at maximal degradation (Ycon) is < 20%. For `CNCCN1C(=O)Cc2cc(Nc3nc(N4CC[C@@H](Nc5ccc6c(C7CCC(=O)NC7=O)nn(C)c6c5)[C@H](C)C4)ncc3Cl)ccc21` (stereo partly drawn) [Example 104, 3-(6-(((3R,4R)-1-(5-chloro-4-((1-(2-(methylamino)ethyl)-2-oxoindolin-5-yl)amino)pyrimidin-2-yl)-3-methylpiperidin-4-yl)amino)-1-methyl-1H-indazol-3-yl)piperidine-2,6-dione], the Percent BCL6 remaining at maximal degradation (Ycon) was < 20%. The same measure, in the same setting: under `CCN1C(=O)Cc2cc(Nc3nc(N4CCC(Nc5ccc6c(N7CCC(=O)NC7=O)nn(C)c6c5)CC4)ncc3Cl)ccc21` [Example 144, 1-(6-((1-(5-chloro-4-((1-ethyl-2-oxoindolin-5-yl)amino)pyrimidin-2-yl)piperidin-4-yl)amino)-1-methyl-1H-indazol-3-yl)dihydropyrimidine-2,4(1H,3H)-dione] stands > 60%. For `C[C@@H]1CN(c2ncc(Cl)c(Nc3ccc4c(c3F)CC(=O)N4C)n2)CC[C@H]1Nc1ccc2c(C3CCC(=O)NC3=O)nn(C)c2c1` (stereo partly drawn) [Example 98, 3-(6-(((3R,4R)-1-(5-chloro-4-((4-fluoro-1-methyl-2-oxoindolin-5-yl)amino)pyrimidin-2-yl)-3-methylpiperidin-4-yl)amino)-1-methyl-1H-indazol-3-yl)piperidine-2,6-dione], the Percent BCL6 remaining at maximal degradation (Ycon) is < 20%.

Consider `C[C@H]1CN(c2ncc(Cl)c(Nc3ccc4c(c3)CC(=O)N4C)n2)CC[C@@H]1Nc1ccc2c(C3CCC(=O)NC3=O)nn(C)c2c1` (stereo partly drawn) [Example 14, 3-(6-(((3S,4S)-1-(5-chloro-4-((1-methyl-2-oxoindolin-5-yl)amino)pyrimidin-2-yl)-3-methylpiperidin-4-yl)amino)-1-methyl-1H-indazol-3-yl)piperidine-2,6-dione], for which the Percent BCL6 remaining at maximal degradation (Ycon) is > 60%. `CC1CCN(c2ncc(Cl)c(Nc3ccc4c(c3)CC(=O)N4C)n2)CCC1Nc1ccc2c(C3CCC(=O)NC3=O)nn(C)c2c1` (single isomer, unassigned) [Example 48, 3-(6-((1-(5-chloro-4-((1-methyl-2-oxoindolin-5-yl)amino)pyrimidin-2-yl)-5-methylazepan-4-yl)amino)-1-methyl-1H-indazol-3-yl)piperidine-2,6-dione]: the Percent BCL6 remaining at maximal degradation (Ycon) was > 60%. Take `C[C@@H]1C[C@H](N(C)c2ccc3c(C4CCC(=O)NC4=O)nn(C)c3c2)CCN1c1ncc(Cl)c(Nc2ccc3c(c2)CC(=O)N3C)n1` (stereo partly drawn) [Example 21, 3-(6-(((2R,4R)-1-(5-chloro-4-((1-methyl-2-oxoindolin-5-yl)amino)pyrimidin-2-yl)-2-methylpiperidin-4-yl)(methyl)amino)-1-methyl-1H-indazol-3-yl)piperidine-2,6-dione]: the Percent BCL6 remaining at maximal degradation (Ycon) was > 60%.

As to `C[C@@H]1CN(c2ncc(Cl)c(Nc3ccc4c(c3)CC(=O)N4C)n2)CC[C@H]1Nc1ccc2c(-n3ccc(=O)[nH]c3=O)nn(C)c2c1` [Example 139, 1-(6-(((3R,4R)-1-(5-chloro-4-((1-methyl-2-oxoindolin-5-yl)amino)pyrimidin-2-yl)-3-methylpiperidin-4-yl)amino)-1-methyl-1H-indazol-3-yl)pyrimidine-2,4(1H,3H)-dione], the Percent BCL6 remaining at maximal degradation (Ycon) was < 20%. For the molecule `C[C@@H]1CN(c2ncc(C#N)c(Nc3cc4c(cc3F)N(C)C(=O)C4)n2)CC[C@H]1Nc1ccc2c(C3CCC(=O)NC3=O)nn(C)c2c1` (stereo partly drawn) [Example 117, 2-((3R,4R)-4-((3-(2,6-dioxopiperidin-3-yl)-1-methyl-1H-indazol-6-yl)amino)-3-methylpiperidin-1-yl)-4-((6-fluoro-1-methyl-2-oxoindolin-5-yl)amino)pyrimidine-5-carbonitrile], the Percent BCL6 remaining at maximal degradation (Ycon) is < 20%. Turning to `C[C@H]1CN(c2ccc3c(C4CCC(=O)NC4=O)nn(C)c3c2)C[C@H](C)N1c1ncc(Cl)c(Nc2ccc3c(c2)CC(=O)N3C)n1` (stereo partly drawn) [Example 29, 3-(6-((3S,5S)-4-(5-chloro-4-((1-methyl-2-oxoindolin-5-yl)amino)pyrimidin-2-yl)-3,5-dimethylpiperazin-1-yl)-1-methyl-1H-indazol-3-yl)piperidine-2,6-dione], the Percent BCL6 remaining at maximal degradation (Ycon) is < 20%. With `CO[C@@H]1CN(c2ncc(Cl)c(Nc3ccc4c(c3)CC(=O)N4C)n2)CC[C@H]1Nc1ccc2c(C3CCC(=O)NC3=O)nn(C)c2c1` (stereo partly drawn) [Example 146, 3-(6-(((3R,4R)-1-(5-chloro-4-((1-methyl-2-oxoindolin-5-yl)amino)pyrimidin-2-yl)-3-methoxypiperidin-4-yl)amino)-1-methyl-1H-indazol-3-yl)piperidine-2,6-dione], the Percent BCL6 remaining at maximal degradation (Ycon) fell in the range of 20 to 60%. In the case of `CCN1C(=O)Cc2cc(Nc3nc(N4CC[C@@H](Nc5ccc6c(C7CCC(=O)NC7=O)nn(C)c6c5)[C@H](C)C4)ncc3Cl)ccc21` (stereo partly drawn) [Example 69, 3-(6-(((3R,4R)-1-(5-chloro-4-((1-ethyl-2-oxoindolin-5-yl)amino)pyrimidin-2-yl)-3-methylpiperidin-4-yl)amino)-1-methyl-1H-indazol-3-yl)piperidine-2,6-dione], the Percent BCL6 remaining at maximal degradation (Ycon) was < 20%. For `C[C@@H]1CN(c2ncc(Cl)c(Nc3ccc4c(c3)CC(=O)N4CCC(C)(C)F)n2)CC[C@H]1Nc1ccc2c([C@@H]3CCC(=O)NC3=O)nn(C)c2c1` (single isomer, unassigned) [Example 109], the Percent BCL6 remaining at maximal degradation (Ycon) was < 20%. As to `CN1C(=O)Cc2cc(Nc3nc(N(C)C4CCN(c5ccc6c(C7CCC(=O)NC7=O)nn(C)c6c5)CC4)ncc3Cl)ccc21` (stereo not shown) [Example 6, 3-(6-(4-((5-Chloro-4-((1-methyl-2-oxoindolin-5-yl)amino)pyrimidin-2-yl)(methyl)amino)piperidin-1-yl)-1-methyl-1H-indazol-3-yl)piperidine-2,6-dione], the Percent BCL6 remaining at maximal degradation (Ycon) was > 60%. Consider `C[C@@H]1CN(c2ncc(Cl)c(Nc3cc(F)c4c(c3)CC(=O)N4C)n2)CC[C@H]1Nc1ccc2c([C@@H]3CCC(=O)NC3=O)nn(C)c2c1` (single isomer, unassigned) [Example 97], for which the Percent BCL6 remaining at maximal degradation (Ycon) was < 20%. As to `C[C@@H]1CN(c2ncc(Cl)c(Nc3ccc4c(c3)CC(=O)N4CCC(C)(C)F)n2)CC[C@H]1Nc1ccc2c([C@H]3CCC(=O)NC3=O)nn(C)c2c1` (single isomer, unassigned) [Example 108], the Percent BCL6 remaining at maximal degradation (Ycon) was < 20%. `CN1C(=O)Cc2cc(Nc3nc(N4CC[C@@H](Nc5ccc6c(C7CCC(=O)NC7=O)nn(C)c6c5)[C@@H](CO)C4)ncc3Cl)ccc21` (stereo partly drawn) [Example 57, 3-[6-[[(3S,4R)-1-[5-Chloro-4-[(1-methyl-2-oxo-indolin-5-yl)amino]pyrimidin-2-yl]-3-(hydroxymethyl)-4-piperidyl]amino]-1-methyl-indazol-3-yl]piperidine-2,6-dione]: the Percent BCL6 remaining at maximal degradation (Ycon) was > 60%. With `C[C@@H]1CN(c2ncc(Cl)c(Nc3ccc4c(c3)CC(=O)N4C)n2)CC[C@H]1Nc1ccc2c(-n3cc(F)c(=O)[nH]c3=O)nn(C)c2c1` [Example 140, 1-(6-(((3R,4R)-1-(5-chloro-4-((1-methyl-2-oxoindolin-5-yl)amino)pyrimidin-2-yl)-3-methylpiperidin-4-yl)amino)-1-methyl-1H-indazol-3-yl)-5-fluoropyrimidine-2,4(1H,3H)-dione], the Percent BCL6 remaining at maximal degradation (Ycon) was < 20%.

With `CN1C(=O)Cc2cc(Nc3nc(N4CC[C@@H](Nc5ccc6c(C7CCC(=O)NC7=O)nn(C)c6c5)[C@@H](C(F)(F)F)C4)ncc3Cl)ccc21` (single isomer, unassigned) [Example 148], the Percent BCL6 remaining at maximal degradation (Ycon) was > 60%. Take `C[C@@H]1CN(c2ncc(Cl)c(Nc3ccc4c(c3)CC(=O)N4CC(C)(F)F)n2)CC[C@H]1Nc1ccc2c([C@H]3CCC(=O)NC3=O)nn(C)c2c1` (single isomer, unassigned) [Example 111]: the Percent BCL6 remaining at maximal degradation (Ycon) was < 20%. Turning to `CN1C(=O)Cc2cc(Nc3nc(N(C)[C@H]4C[C@H]5CC[C@@H](C4)N5c4ccc5c(C6CCC(=O)NC6=O)nn(C)c5c4)ncc3Cl)ccc21` (stereo partly drawn) [Example 16, 3-(6-((1R,3r,5S)-3-((5-chloro-4-((1-methyl-2-oxoindolin-yl)amino)pyrimidin-2-yl)(methyl)amino)-8-azabicyclo[3.2.1]octan-8-yl)-1-methyl-1H-indazol-3-yl)piperidine-2,6-dione], the Percent BCL6 remaining at maximal degradation (Ycon) fell in the range of 20 to 60%.
